Drawing on patent US8383642B2, “Spiropiperidine compounds” (Eli Lilly and Company, priority 2009, dated 2013), this text covers binding detected for one compound.

The target in one test is T1, PPARα (Homo sapiens, UniProt Q07869).
T1 construct: made in house; host or cells: HEK293 (cell lysates)
T1 sequence (Q07869 1-468): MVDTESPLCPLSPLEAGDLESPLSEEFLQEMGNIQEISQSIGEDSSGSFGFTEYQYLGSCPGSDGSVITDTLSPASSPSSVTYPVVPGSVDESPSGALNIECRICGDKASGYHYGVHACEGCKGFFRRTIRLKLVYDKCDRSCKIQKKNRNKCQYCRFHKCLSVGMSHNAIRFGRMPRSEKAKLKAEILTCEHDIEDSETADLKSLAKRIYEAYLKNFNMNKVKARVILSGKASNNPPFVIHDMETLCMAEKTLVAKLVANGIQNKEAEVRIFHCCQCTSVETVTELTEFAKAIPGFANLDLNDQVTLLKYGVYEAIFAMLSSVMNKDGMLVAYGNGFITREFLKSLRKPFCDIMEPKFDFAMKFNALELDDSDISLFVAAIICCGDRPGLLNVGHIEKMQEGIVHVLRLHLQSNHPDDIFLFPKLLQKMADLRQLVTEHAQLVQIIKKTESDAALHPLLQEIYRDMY
T1 sequence (P19793 1-462 partner): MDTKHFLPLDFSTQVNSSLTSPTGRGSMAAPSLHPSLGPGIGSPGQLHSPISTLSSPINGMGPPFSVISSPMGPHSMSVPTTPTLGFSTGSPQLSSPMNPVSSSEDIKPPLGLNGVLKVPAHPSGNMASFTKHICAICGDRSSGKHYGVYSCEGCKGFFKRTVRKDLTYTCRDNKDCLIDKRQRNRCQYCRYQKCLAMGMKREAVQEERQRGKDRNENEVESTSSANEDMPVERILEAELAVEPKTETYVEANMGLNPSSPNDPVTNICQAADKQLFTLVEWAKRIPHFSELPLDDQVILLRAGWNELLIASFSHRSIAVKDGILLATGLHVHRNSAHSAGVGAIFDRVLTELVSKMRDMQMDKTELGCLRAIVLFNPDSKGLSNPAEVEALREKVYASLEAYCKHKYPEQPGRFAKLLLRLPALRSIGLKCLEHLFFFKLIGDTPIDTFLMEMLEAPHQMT
In words: PPARα binding assay (SPA). The conditions noted are these: concentrations up to 10 μM. On the procedure:
(§1) Because GPR40 is known to be activated by ligands to PPARγ exemplified compounds are examined in PPARα, PPARδ, and PPARγ binding and functional assays to determine the selectivity of exemplified compounds for GPR40. Compounds exemplified herein are tested essentially as described below for PPAR binding and generally have binding values greater than 1000 nM with 10 μM concentrations of test compound and are thus considered negative for PPAR activity.
(§2) Binding affinities of compounds for the PPAR α, δ, and γ receptors are assessed using Scintillation Proximity Assay (SPA) technology. Biotinylated oligonucleotide Direct Repeat 2 (DR2) is used for binding the receptors to Yttrium silicate streptavidin-coated SPA beads. […] Non-specific binding is determined in the presence of 10,000 nM of the unlabeled PPAR α/δ dual agonist reference compound for the alpha and delta receptor assays and the PPARγ agonist reference compound for the gamma receptor assay. The binding reaction (100 μl per well in a 96 well [Costar 3632] plate) is incubated for 10 h and counted disintegration per minutes (dpm) on a Wallac Microbeta. Receptor binding affinity (IC50) for the compounds is determined by fitting an 11 point concentration-response curve with a 4-parameter logistic equation. Ki, is determined from the IC50 using the Cheng-Prussoff equation and Kd determined by saturation binding. […]

In a further test the target is T2, PPARδ (Homo sapiens, UniProt Q03181).
T2 construct: made in house; host or cells: HEK293 (cell lysates)
T2 sequence (Q03181 1-441): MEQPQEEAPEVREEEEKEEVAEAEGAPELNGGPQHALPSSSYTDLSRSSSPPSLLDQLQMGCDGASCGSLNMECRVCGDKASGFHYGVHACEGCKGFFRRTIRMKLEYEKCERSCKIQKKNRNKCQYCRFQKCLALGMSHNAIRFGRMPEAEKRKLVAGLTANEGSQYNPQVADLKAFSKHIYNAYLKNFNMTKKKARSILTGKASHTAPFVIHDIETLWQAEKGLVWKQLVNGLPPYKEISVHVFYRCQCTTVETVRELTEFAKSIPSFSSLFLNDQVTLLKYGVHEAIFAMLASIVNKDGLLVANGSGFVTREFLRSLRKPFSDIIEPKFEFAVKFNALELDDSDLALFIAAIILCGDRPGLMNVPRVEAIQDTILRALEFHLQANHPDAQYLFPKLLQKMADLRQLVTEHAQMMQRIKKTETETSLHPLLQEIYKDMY
T2 sequence (P19793 1-462 partner): T1 sequence (P19793 1-462 partner)
In words: PPARδ binding assay (SPA). The following applies: concentrations up to 10 μM. On the procedure: as §1, §2

The structures appear in SMILES notation.

Regarding `CC#C[C@@H](CC(=O)O)c1ccc(OCc2ccc(CN3CCC4(C=Cc5ccccc54)CC3)cc2)cc1` [Example 1, (3S)-3-(4-{[4-(1′H-Spiro[indene-1,4′-piperidin]-1′-ylmethyl)benzyl]oxy}phenyl)hex-4-ynoic acid], the binding detected result on PPARα and on PPARδ was “no binding is detected” in each case.
